Like-named read-outs stand apart in the source and are kept apart here. Bridge positions count the residues as written; N and C are the ends. Peptide text beside a SMILES is read from it.
What was measured:
Escherichia coli W3110 = format: cell-based
[1] = tested on: Single-donor human red blood cells; experiment: Hemolysis assay; format: cell-based
Procedure: Single-donor human red blood cells (Innovative Research, no. IWB3ALS) were washed in PBS and adjusted to a concentration of 1 × 10^9 cells/ml. Each peptide was added individually to 200 μl of cells at a concentration of either 300 μg/ml (SySA library) or 128 μg/ml (SySA-5 optimization library) in a 96-well polypropylene plate (Corning, 3879). PBS alone and 1% Triton X-100 were used for background normalization and 100% hemolysis, respectively. Each reaction was set up in triplicate. Plates were incubated for 3 hours at 37°C. Following incubation, samples were centrifuged at 800g for 20 min, and 100 μl of supernatant was transferred to a flat-bottom 96-well plate (Genesse, 25-104). Percent hemolysis for each sample was determined by normalizing the absorbance at 540 nm for each sample to the average background and dividing by the average absorbance for 1% Triton X-100 (100% hemolysis). Error bars represent 1 SD of triplicate samples.

Row | SMILES | W3110 MIC (Escherichia coli W3110; W3110) [µg/mL] | %Hemo [1] [%] | also measured
1 | CC[C@H](C)[C@@H]1NC(=O)[C@H](CCCNC(=N)N)NC(=O)[C@H](CC(C)C)NC(=O)CNC(=O)[C@H](CO)NC(=O)[C@H](CCCNC(=N)N)NC(=O)[C@H](CCCNC(=N)N)NC(=O)[C@H](CC(N)=O)NC(=O)[C@H](CC(=O)O)NC(=O)[C@H](CC(C)C)NC(=O)[C@H](CCCNC(=N)N)NC(=O)[C@H](C(C)C)NC(=O)[C@H](CCCNC(=N)N)NC(=O)[C@H](C(C)C)NC(=O)[C@@H](N)CSSC[C@@H](C(=O)O)NC(=O)[C@H](C(C)C)NC(=O)[C@H](CCC(N)=O)NC(=O)[C@H](CC(C)C)NC(=O)[C@H](CO)NC1=O [SyPA-3] (H-CVRVRLDNRRSGLRISLQVC-OH; disulfide 1-20) | >128 | 0.39 | –
2 | CC[C@H](C)[C@@H]1NC(=O)[C@H](CCCNC(=N)N)NC(=O)[C@H](CC(C)C)NC(=O)[C@@H](N)CSSC[C@@H](C(=O)O)NC(=O)[C@H](C(C)C)NC(=O)[C@H](CCC(N)=O)NC(=O)[C@H](CC(C)C)NC(=O)[C@H](CO)NC(=O)[C@H](C(C)C)NC(=O)[C@H](CCCNC(=N)N)NC(=O)[C@H](CC(C)C)NC(=O)CNC(=O)[C@H](CCCNC(=N)N)NC(=O)[C@H](CCCNC(=N)N)NC(=O)[C@H](CCCNC(=N)N)NC(=O)[C@H](CC(=O)O)NC(=O)[C@H](CC(N)=O)NC(=O)[C@H](CC(C)C)NC(=O)[C@H](CCCNC(=N)N)NC1=O [SyPA-5] (H-CLRIRLNDRRRGLRVSLQVC-OH; disulfide 1-20) | – | 1.89 | –
3 | CC[C@H](C)[C@@H]1NC(=O)[C@H](CCCNC(=N)N)NC(=O)[C@H](C(C)C)NC(=O)[C@@H](N)CSSC[C@@H](C(=O)O)NC(=O)[C@H](C(C)C)NC(=O)[C@H](CCC(N)=O)NC(=O)[C@H](C(C)C)NC(=O)[C@H](CO)NC(=O)[C@H](C(C)C)NC(=O)[C@H](CCCNC(=N)N)NC(=O)[C@H](C(C)C)NC(=O)[C@H](CCCNC(=N)N)NC(=O)[C@H](CCCNC(=N)N)NC(=O)[C@H](CCCNC(=N)N)NC(=O)[C@H](CCCNC(=N)N)NC(=O)[C@H](CC(N)=O)NC(=O)[C@H](CC(N)=O)NC(=O)[C@H](CC(C)C)NC(=O)[C@H](CCCNC(=N)N)NC1=O [SyPA-6] (H-CVRIRLNNRRRRVRVSVQVC-OH; disulfide 1-20) | – | – | W3110 MIC (Escherichia coli W3110; SyPA peptides, MH, replicate 1): 32 µg/mL; W3110 MIC (Escherichia coli W3110; SyPA peptides, MH, replicate 2): 32 µg/mL; W3110 MIC (Escherichia coli W3110; SyPA peptides, MH, replicate 3): 32 µg/mL; %Hemo ([1]; SyPA peptides, human red blood cells, 3 h 37°C, relative to 1% Triton X-100, peptide concentration not stated for SyPA, n=3): 0.90%
4 | CC[C@H](C)[C@@H]1NC(=O)[C@H](CC(N)=O)NC(=O)[C@H](C(C)C)NC(=O)[C@H](CCCNC(=N)N)NC(=O)[C@H](C(C)C)NC(=O)[C@H](CCCNC(=N)N)NC(=O)[C@@H](N)CSSC[C@@H](C(=O)O)NC(=O)[C@H](CCC(N)=O)NC(=O)[C@H](CC(C)C)NC(=O)[C@H](CCC(N)=O)NC(=O)[C@H](CC(C)C)NC(=O)[C@H](CCCNC(=N)N)NC(=O)[C@H](CC(C)C)NC(=O)[C@H]([C@@H](C)O)NC(=O)[C@H](CCCNC(=N)N)NC(=O)[C@H](CO)NC(=O)[C@H](CCCNC(=N)N)NC(=O)[C@H](CC(N)=O)NC(=O)[C@H](CC(=O)O)NC1=O [SyPA-7] (H-CRVRVNIDNRSRTLRLQLQC-OH; disulfide 1-20) | >128 | 1.48 | –
5 | CC(C)C[C@@H]1NC(=O)[C@H](CCCNC(=N)N)NC(=O)CNC(=O)[C@H](CCCNC(=N)N)NC(=O)[C@H](CCCNC(=N)N)NC(=O)[C@H](CC(N)=O)NC(=O)[C@H](CC(N)=O)NC(=O)[C@H](CC(C)C)NC(=O)[C@H](CCCNC(=N)N)NC(=O)[C@H](C(C)C)NC(=O)[C@H](CCCNC(=N)N)NC(=O)[C@H](CC(C)C)NC(=O)[C@@H](N)CSSC[C@@H](C(=O)O)NC(=O)[C@H](C(C)C)NC(=O)[C@H](CCC(N)=O)NC(=O)[C@H](CC(C)C)NC(=O)[C@H](CO)NC(=O)[C@H](C(C)C)NC(=O)[C@H](CCCNC(=N)N)NC1=O [SyPA-8] (H-CLRVRLNNRRGRLRVSLQVC-OH; disulfide 1-20) | – | 2.87 | –
